Test results as given in US20050080076A1 (Xanodyne Pharmacal, Inc., priority 2003, published 2005).
pKi: −log10 of the molar value.

How the values were obtained:
Dopamine D3 = Dopamine D3 (Homo sapiens, UniProt P35462); assay: Receptor binding, Dopamine D3
Description: (§1) Receptor-ligand binding studies were performed as known to one skilled in the art. Compounds evaluated were LMP, the parent compound, the NDM LMP metabolite of LMP, and the sulfoxide metabolite of LMP. These studies verified receptor binding and affinity by the parent compound, as well as identified other potential receptors for the parent compound and its metabolites, and identified and verified receptors and receptor affinity for the metabolites.
(§2) Dopamine receptor affinity included binding to D1, D2, D3, D4, and D5 receptors. Serotonin receptor affinity included binding to 5-HT1A, 5-HT2A, 5-HT2B, 5-HT2, 5-HT5A, 5-HT6, and 5-HT7 receptors. Alpha adrenergic receptor affinity included binding to α1A, α1B, α1C, α2A, α2B, and α2C receptors. Muscarinic receptor affinity included binding to M1, M2, M3, M4, and M5 receptors. Binding to the histamine H1 receptor, the calcium ion channel receptor, and the sodium ion channel receptor were also evaluated. In each of the tables, the following abbreviations are used: LMP indicates the parent compound levomepromazine. NDM LMP indicates the N-desmethyl (N-desmethyl) metabolite. Sulfoxide indicates the sulfoxide metabolite. […] Ki (the inhibition constants of binding) indicate binding affinity.

Dopamine D5 = Dopamine D5 (Homo sapiens, UniProt P21918); assay: Receptor binding, Dopamine D5
Description: as §1, §2

Serotonin 5-HT2C = biological target: T1, Serotonin 5-HT2C (Homo sapiens, UniProt P28335); assay: Receptor binding, Serotonin 5-HT2C
T1 sequence (P28335 33-458): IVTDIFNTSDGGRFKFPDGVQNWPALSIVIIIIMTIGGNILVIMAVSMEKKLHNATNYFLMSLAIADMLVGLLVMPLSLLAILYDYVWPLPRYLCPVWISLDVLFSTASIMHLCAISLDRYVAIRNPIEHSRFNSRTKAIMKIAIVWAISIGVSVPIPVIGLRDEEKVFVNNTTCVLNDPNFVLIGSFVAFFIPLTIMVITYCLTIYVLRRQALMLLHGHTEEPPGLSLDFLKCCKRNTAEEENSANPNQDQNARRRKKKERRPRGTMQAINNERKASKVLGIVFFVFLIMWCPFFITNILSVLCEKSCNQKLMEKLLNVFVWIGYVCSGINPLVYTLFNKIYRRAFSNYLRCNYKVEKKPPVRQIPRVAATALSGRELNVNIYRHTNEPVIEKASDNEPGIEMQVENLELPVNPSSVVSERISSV
Description: as §1, §2

Serotonin 5-HT5A = Serotonin 5-HT5A (Homo sapiens, UniProt P47898); assay: Receptor binding, Serotonin 5-HT5A
Description: as §1, §2

Adrenergic α1B = biological target: T2, Adrenergic α1B (Homo sapiens, UniProt P35368); assay: Receptor binding, Adrenergic α1B
T2 sequence (P35368 1-520): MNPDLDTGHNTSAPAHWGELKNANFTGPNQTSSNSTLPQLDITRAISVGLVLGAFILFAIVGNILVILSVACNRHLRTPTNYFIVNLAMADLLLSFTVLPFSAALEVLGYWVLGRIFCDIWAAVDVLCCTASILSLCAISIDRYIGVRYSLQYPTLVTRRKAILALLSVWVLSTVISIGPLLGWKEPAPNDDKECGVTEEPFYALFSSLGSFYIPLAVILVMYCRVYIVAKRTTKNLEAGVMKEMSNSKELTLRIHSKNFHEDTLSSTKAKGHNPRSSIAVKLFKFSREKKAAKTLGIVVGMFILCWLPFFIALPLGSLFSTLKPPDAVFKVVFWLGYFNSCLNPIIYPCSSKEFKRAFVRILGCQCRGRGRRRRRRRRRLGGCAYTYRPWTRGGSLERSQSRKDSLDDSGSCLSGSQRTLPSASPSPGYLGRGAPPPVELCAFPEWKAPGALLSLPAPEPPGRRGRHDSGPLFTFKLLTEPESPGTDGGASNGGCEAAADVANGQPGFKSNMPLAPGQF
Description: as §1, §2

Muscarinic M1 = biological target: T3, Muscarinic M1 (Homo sapiens, UniProt P11229); assay: Receptor binding, Muscarinic M1
T3 sequence (P11229 1-460): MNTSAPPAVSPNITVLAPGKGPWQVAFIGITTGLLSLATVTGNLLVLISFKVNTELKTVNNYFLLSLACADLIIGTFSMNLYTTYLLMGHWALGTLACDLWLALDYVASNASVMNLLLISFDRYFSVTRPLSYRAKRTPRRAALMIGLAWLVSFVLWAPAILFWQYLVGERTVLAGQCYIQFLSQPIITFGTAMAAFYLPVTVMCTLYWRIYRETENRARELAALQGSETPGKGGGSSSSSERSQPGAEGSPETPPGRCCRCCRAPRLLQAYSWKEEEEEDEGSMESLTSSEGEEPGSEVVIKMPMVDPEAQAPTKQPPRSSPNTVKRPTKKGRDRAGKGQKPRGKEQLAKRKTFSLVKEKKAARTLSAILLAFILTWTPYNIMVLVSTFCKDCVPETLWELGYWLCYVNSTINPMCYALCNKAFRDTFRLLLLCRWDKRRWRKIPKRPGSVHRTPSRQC
Description: as §1, §2

Muscarinic M2 = biological target: T4, Muscarinic M2 (Homo sapiens, UniProt P08172); assay: Receptor binding, Muscarinic M2
T4 sequence (P08172 1-466): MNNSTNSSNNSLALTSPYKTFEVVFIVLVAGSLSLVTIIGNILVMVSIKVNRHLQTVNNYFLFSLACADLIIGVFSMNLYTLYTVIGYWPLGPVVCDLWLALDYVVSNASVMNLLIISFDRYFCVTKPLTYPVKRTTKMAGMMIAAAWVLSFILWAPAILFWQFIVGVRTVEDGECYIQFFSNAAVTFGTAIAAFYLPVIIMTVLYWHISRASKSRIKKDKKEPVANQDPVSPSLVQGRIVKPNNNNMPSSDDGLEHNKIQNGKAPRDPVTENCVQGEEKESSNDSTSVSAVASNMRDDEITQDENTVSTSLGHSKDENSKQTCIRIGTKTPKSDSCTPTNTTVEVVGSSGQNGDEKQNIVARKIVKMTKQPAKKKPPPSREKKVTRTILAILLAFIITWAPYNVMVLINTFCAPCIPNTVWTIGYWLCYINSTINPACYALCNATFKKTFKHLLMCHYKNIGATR
Description: as §1, §2

Histamine H1 = Histamine H1 (Homo sapiens, UniProt P35367); assay: Receptor binding, Histamine H1; conditions: for pKi: Histamine H1; for Relative Affinity: Histamine
Description: as §1, §2

α1 adrenergic receptors = assay: Receptor affinity summary, α1 adrenergic receptors; assay type: binding; conditions: for binding to all α1 adrenergic receptors (in words): α1A, α1B, and α1C; for Relative Affinity: α1-Adrenergic
Description: as §1, §2

Sequence of Dopamine D3 (P35462 whole entry): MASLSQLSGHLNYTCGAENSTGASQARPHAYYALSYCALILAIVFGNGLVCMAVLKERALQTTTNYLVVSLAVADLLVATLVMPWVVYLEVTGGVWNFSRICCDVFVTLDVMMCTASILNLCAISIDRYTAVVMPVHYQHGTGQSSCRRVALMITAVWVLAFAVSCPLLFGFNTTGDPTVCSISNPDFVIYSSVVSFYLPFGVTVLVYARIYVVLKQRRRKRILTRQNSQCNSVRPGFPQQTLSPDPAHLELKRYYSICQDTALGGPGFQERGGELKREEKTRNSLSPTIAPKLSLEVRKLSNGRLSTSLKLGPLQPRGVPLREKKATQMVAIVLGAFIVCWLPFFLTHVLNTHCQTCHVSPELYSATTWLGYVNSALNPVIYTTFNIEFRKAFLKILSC
Sequence of Histamine H1 (P35367 whole entry): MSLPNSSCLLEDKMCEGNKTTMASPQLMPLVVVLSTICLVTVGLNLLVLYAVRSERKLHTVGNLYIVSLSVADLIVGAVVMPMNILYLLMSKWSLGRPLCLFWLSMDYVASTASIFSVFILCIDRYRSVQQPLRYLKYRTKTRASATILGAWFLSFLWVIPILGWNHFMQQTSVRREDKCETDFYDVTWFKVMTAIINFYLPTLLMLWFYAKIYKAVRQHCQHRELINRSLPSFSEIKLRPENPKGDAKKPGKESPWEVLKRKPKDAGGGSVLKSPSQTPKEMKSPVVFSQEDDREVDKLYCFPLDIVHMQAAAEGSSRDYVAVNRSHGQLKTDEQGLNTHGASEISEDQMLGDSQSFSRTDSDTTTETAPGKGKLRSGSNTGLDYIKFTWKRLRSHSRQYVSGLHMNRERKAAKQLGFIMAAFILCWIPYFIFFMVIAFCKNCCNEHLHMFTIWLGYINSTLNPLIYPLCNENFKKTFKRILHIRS
Sequence of Serotonin 5-HT5A (P47898 whole entry): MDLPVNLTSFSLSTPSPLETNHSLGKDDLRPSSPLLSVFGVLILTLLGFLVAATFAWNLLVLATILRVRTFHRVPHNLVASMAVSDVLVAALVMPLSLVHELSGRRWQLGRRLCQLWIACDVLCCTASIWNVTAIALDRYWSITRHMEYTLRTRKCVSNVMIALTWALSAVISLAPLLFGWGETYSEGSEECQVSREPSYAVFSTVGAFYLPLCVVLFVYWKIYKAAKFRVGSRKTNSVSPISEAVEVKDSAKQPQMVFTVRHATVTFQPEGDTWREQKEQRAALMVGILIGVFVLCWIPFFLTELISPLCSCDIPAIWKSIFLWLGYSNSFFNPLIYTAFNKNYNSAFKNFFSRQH
Sequence of Dopamine D5 (P21918 whole entry): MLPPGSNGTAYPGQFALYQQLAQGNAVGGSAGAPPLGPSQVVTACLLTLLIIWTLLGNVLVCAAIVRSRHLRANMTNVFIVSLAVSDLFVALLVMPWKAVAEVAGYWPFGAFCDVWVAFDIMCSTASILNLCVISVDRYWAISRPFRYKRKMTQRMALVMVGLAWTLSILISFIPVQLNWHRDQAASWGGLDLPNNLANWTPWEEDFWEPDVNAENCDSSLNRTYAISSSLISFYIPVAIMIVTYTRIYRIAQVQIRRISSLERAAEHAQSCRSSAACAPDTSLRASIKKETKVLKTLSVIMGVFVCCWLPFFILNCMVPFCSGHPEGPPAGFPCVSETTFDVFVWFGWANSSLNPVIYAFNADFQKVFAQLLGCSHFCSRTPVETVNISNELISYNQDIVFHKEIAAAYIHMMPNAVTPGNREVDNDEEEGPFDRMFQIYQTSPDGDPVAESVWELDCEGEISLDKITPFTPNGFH

SMILES | pKi (Dopamine D3) | pKi (Dopamine D5) | pKi (Serotonin 5-HT2C) | pKi (Serotonin 5-HT5A) | pKi (Adrenergic α1B) | pKi (Muscarinic M1) | pKi (Muscarinic M2) | pKi (Histamine H1) | binding to all α1 adrenergic receptors (in words) (α1 adrenergic receptors) | Relative Affinity (Histamine H1) | Relative Affinity (α1 adrenergic receptors)
COc1ccc2c(c1)N(C[C@H](C)CN(C)C)c1ccccc1S2 [LMP, Levomepromazine] | 8.40 | 6.74 | 8.10 | 6.87 | 8.70 | 7.37 | 6.58 | 8.70 | high binding |  | 
CNCC(C)CN1c2ccccc2Sc2ccc(OC)cc21 (stereo not drawn) [NDM LMP, R(+) 2-methoxy-10-2-methyl-3-monomethylaminopropyl phenothiazine] | 8.30 | 6.61 | 8.05 | 6.82 | 8.70 | 7.27 | 6.49 | 8.68 | high binding | LMP = NDM LMP = sulfoxide | LMP = NDM LMP ≧ sulfoxide
COc1ccc2c(c1)N(C[C@H](C)CN(C)C)c1ccccc1[S+]2[O-] (stereo partly shown) [Sulfoxide, levomepromazine sulfoxide] | < 5.00 | < 5.00 | 5.70 | < 5.00 | 7.10 | 6.14 | 5.89 | 8.21 | high binding | LMP = NDM LMP = sulfoxide | LMP = NDM LMP ≧ sulfoxide
